Results from patent US6630516B2, “Methods and compositions for preventing and treating chronological aging in human skin” (The Regents of the University of Michigan, priority 1997, dated 2003).
Entries after “also recorded” stand apart in the source; their conditions may differ.

Experiments:
Type III procollagen = assay: Stained sectioned biopsies of elderly skin: Type III procollagen; assay type: in vivo, human; settings: seven days after a single application of 1% retinol; 80+ volunteers; stained sections; vs vehicle
Excerpt: (§1) Additional sectioned and stained biopsies from our oldest (80+) group of volunteers after retinoid treatment are depicted in FIG. 18. As noted above, AP-1 induces MMP formation and is formed by the heterodimerization of c-Jun and c-Fos proteins. […] Thus, our invention appears to inhibit c-Jun formation and thereby inhibit the formation of AP-1 and the resulting MMPs. […] (The apparently lower density of procollagen in the dermis in FIG. 18C is an artifact of the section made; there is clearly a higher level of staining in the retinol treated section than in the vehicle treated section.)
(§2) In another aspect, this invention is directed to improving, or stimulating, the synthesis of Types I and III procollagen in an elderly person's skin. We have found there is a significant reduction in Types I and III procollagen synthesis in sun-protected skin of many (at least 50% of) aged individuals and that this condition can be treated by the topical application of a retinoid. Procollagen is a protein synthesized by skin fibroblast cells and then secreted into the extracellular medium, where it is converted by naturally occurring enzymes into collagen. Reduced procollagen synthesis in an elderly person's skin is manifest as a reduced presence of procollagen protein in both the upper dermis (extracellular) and in fibroblasts throughout the dermis, and can be determined (e.g.) by immunohistochemistry.

c-Jun protein = assay: Stained sectioned biopsies of elderly skin: c-Jun protein; assay type: in vivo, human; settings: seven days after a single application of 1% retinol; 80+ volunteers; stained sections
Excerpt: As noted above, AP-1 induces MMP formation and is formed by the heterodimerization of c-Jun and c-Fos proteins.

Type I procollagen = assay: Stained sectioned biopsies of elderly skin: Type I procollagen; assay type: in vivo, human; settings: seven days after a single application of 1% retinol; 80+ volunteers; stained sections; vs vehicle
Excerpt: as §1, §2

MMP-9 = assay: Gelatin zymography in biopsies of treated elderly skin (MMP-9); assay type: in vivo, human; settings: seven days after a single retinol treatment, vs vehicle only, p<0.001
Excerpt: (§3) We also used the biopsies from the aforementioned volunteers to determine the effect of the same retinoid treatment on the relative activity of the same collagenase enzymes studied for the results shown in FIG. 4. FIGS. 14A, 14B, and 14C depict the average MMP activity levels (for collagenase MMP-1 and gelatinases MMP-9 and MMP-2, respectively) after treatment of elderly individuals with retinol. […] (In FIGS. 14A-14C, the number of subjects for each figure was 10; “*” indicates […] versus the 18-29 year old values, “**” indicates p<0.1, and “***” indicates p<0.001.)
(§4) Gelatin zymography (Varani et al., op. cit.) was used to assess MMP-2 (72-kD gelatinase; gelatinase A) and MMP9 (92-kD gelatinase; gelatinase B) activity. Tissue extracts were electrophoresed in an 8.5% SDS-polyacrylamide gel containing 1 mg/ml of gelatin. After electrophoresis, the SDS was removed by three sequential washes in 1% Triton X-100. The first two washes were for 20 minutes each and the last was overnight. Quantitation of hydrolysis zone width was done by laser densitometry.

fibroblasts = assay: Ex vivo cell growth from biopsies after 7-day in vivo treatment (fibroblasts); parameters: species or system human; settings: one application of 1% retinol in vivo, occluded seven days, biopsy cells cultured ex vivo; age over 80; p<0.05
Method: (§5) That is, an elderly volunteer was treated with retinol (one application of 1% retinol, occluded for seven days), the treated area was biopsied, and the keratinocytes and fibroblasts from the biopsy were cultured ex vivo. […] In particular, keratinocytes growth increased by about 30% (12A) while fibroblast growth increased by about 200% (12B), with p<0.05 for both. Accordingly, the topical application of a retinoid to aged skin would be expected to increase the number of keratinocytes and/or the number of fibroblasts in the skin.
(§6) Ex vivo cell growth. Biopsies were minced into small fragments (approximately 15 fragments per tissue piece) and the tissue fragments transferred to plastic cell culture flasks. Culture medium consisted of Dulbecco's Modified Minimal Essential Medium of Eagle with Earle's salts, non-essential amino acids and 10% fetal bovine serum. Tissue fragments were incubated at 37° C. and 5% CO2/95% air for up to one month. Each fragment was scored for whether keratinocytes and/or fibroblasts grew out of the tissue and from this, the percentage of fragments from which keratinocytes and fibroblasts were isolated was determined according to the method of Varani, J., et al., J Clin. Invest., 96, 1747-1756 (1994).

[1] = test system: sun-protected skin of subjects at least 80 years old; assay: Histology and morphometry of elderly skin biopsied seven days after one topical treatment; assay type: in vivo, human
Excerpt: To investigate the treatment of chronologically-aged skin, 17 subjects having an age of at least 80 years old were given one topical treatment with 1% retinol or with vehicle alone, the test area was occluded for seven days, and the test area was then biopsied. The vehicle was composed of a mixture of ethanol and polyethylene glycol in a 70:30 volumetric ratio. In comparing vehicle-treated skin with untreated skin from individuals of the same elderly age range, there were no statistically significant differences in any of the parameters described with reference to FIG. 2, namely the number of fibroblasts and keratinocytes, the epidermal thickness, and undesirable dermal connective tissue features. […] Due to the short duration of the retinoid (retinol) treatment, little change in the number of detrimental dermal connective tissue features (11B) was apparent.
Histology and morphometry. Replicate 4-mm punch biopsies were obtained from buttock skin of each individual. Formalin-fixed tissue pieces were sectioned, stained with hematoxylin and eosin, randomized and blinded. The sections were examined using an Olympus BX40 microscope in conjunction with a Sony DCX-151 high-resolution camera. Blocked areas 200 μm on a side were isolated using NIH Imager software and epidermal height was assessed at four sites (25 μm apart) in each of two such areas. The same two blocked areas were used for epithelial cell counts. The number of interstitial cell nuclei (i.e., nuclei below the dermo-epidermal juncture, not associated with capillaries) over the entire histological section was determined as a measure of dermal cellularity. The same blinded sections were scored for connective tissue fiber spacing, thickness, degree of disorganization and depth of disorganization, using a scale of 1-9 for each parameter.

MMP-1 = assay: Matrix metalloproteinase assay (collagenolytic activity) in biopsies of treated elderly skin; assay type: in vivo, human; settings: seven days after a single retinol treatment, vs vehicle only, p<0.001
Excerpt: as §3
Matrix metalloproteinase assays. Tissue pieces were frozen in liquid nitrogen immediately after biopsy, homogenized in 20 mM Tris HCl (pH 7.6) plus 5 mM CaCl2, and centrifuged at 3000×g for 10 minutes to remove particulates. Ability to release soluble radioactive fragments from 3H-labeled fibrillar Type I collagen (described by Fisher, G. J., et al., Nature, 379, 335-339 (1996) and Hu, C-L, et al., Analytic. Biochem, 88, 638-643 (1978)) was used as a measure of collagenolytic activity. […] Subsequently, 0.2 μCi of collagen substrate (NEN-DuPont, Boston, Mass.) was incubated for 24 hours with 50 μl of tissue extract. […] Radioactivity remaining in the supernatant fluid was then measured and from this, the percentage of substrate hydrolzyed was determined.

procollagen protein = assay: Procollagen protein levels in chronologically-aged skin after treatment; assay type: in vivo, human; settings: single application of 1% retinol to chronologically-aged skin, covered with air-permeable adhesive bandage, examined seven days later
Excerpt: as §2
It has been found unexpectedly that topical treatment of elderly, chronoaged skin with a retinoid results in a restitution of intracellular procollagen protein levels similar to those observed in young individuals (such as those aged 40 and younger). […] It would be more preferable for elderly persons to apply the retinoid once or twice daily to maintain a therapeutic regimen, although the agent could be applied on a less frequent but preferably regular basis (e.g., every other day, or once weekly). […]

ERK = ERK activity assay in biopsies of treated elderly skin; assay type: in vivo, human; settings: 1% retinol applied to sun-protected skin, occluded, examined seven days later; three 80+ year old volunteers; control normalized to one
Excerpt: Using the same technique as previously described for retinoid treatment (1% retinol applied to sun-protected skin, occluded, and examined seven days later), we treated and then tested three of our 80+ year old volunteers to determine the effect of retinoid treatment on ERK activity. […] ERK phosphorylation and activity assays. ERK1 and ERK2 in skin supernatants were immunoprecipitated with antibodies from Santa Cruz Biotechnology Inc. and assayed for enzymatic activity using myelin basic protein as substrate, as described by J. D. Weber et al. (“Sustained activation of extracellular-signal regulated kinase I (ERK1) is required for the continued expression of cyclin D1 in G1 phase,” Biochem. J., 326:61-68 (1997)). Total and phosphorylated ERK1 and ERK2 in supernatants were determined by Western analysis, using antibodies from New England Biolabs Inc. (Beverly, Mass.)

keratinocytes = assay: Ex vivo cell growth from biopsies after 7-day in vivo treatment (keratinocytes); parameters: species or system human; settings: one application of 1% retinol in vivo, occluded seven days, biopsy cells cultured ex vivo; age over 80; p<0.05
Method: as §5, §6

[2] = test system: Type III procollagen α1(III) mRNA; assay: In vivo induction of Type III procollagen mRNA in elderly skin; parameters: species or system human; settings: 1% retinol cream applied once to sun-protected skin, covered with a patch seven days; seven 80+ year old individuals
Method: Seven 80+ year old individuals were treated clinically with 1% retinol cream, applied once to sun-protected skin, covered with a patch, and left undisturbed for seven days.
Northern analysis of RNA. Total RNA (e.g., for c-Jun, procollagen α1(III)) was isolated from skin samples by guanidinium hydrochloride lysis and ultracentrifugation (as described by G. J. Fisher et al., “Cellular, immunologic and biochemical characterization of topical retinoic acid-treated human skin,” J Investig. Dermatol, 96:699-707 (1991)). Northern analysis of total RNA (40 μg/lane) with randomly primed ^32P labelled cDNA probes for the particular mRNA to be determined were performed as described by G. J. Fisher et al. (in “All trains retinoic acid induces cellular retinol-binding protein in human skin in vivo,” J Investig. Dermatol, 105:80-86 (1995)). Type III procollagen mRNA was determined using […].

MMP-2 = assay: Gelatin zymography in biopsies of treated elderly skin (MMP-2); assay type: in vivo, human; settings: seven days after a single retinol treatment, vs vehicle only
Excerpt: as §3, §4

[3] = 1% retinol, one topical application, occluded seven days, vs vehicle-treated skin, age 80+
[4] = one application of retinol, 7 days, sun-protected skin of an individual, vs vehicle-treated skin

Structure (SMILES): CC1=C(/C=C/C(C)=C/C=C/C(C)=C/CO)C(C)(C)CCC1 [retinol]
- level of Type III procollagen in skin (Type III procollagen): increased; also recorded: enhanced
- c-Jun level in elderly skin compared with vehicle-treated skin (c-Jun protein): decreased; also recorded: significantly reduced (almost absent)
- level of Type I procollagen in skin (Type I procollagen): increased; also recorded: enhanced
- decrease in MMP-9 activity (MMP-9): 39%
- increase in ex vivo fibroblast growth (fibroblasts): about 200%
- mean increase in number of keratinocytes per section ([1]; 1% retinol, one topical application, occluded seven days, vs vehicle-treated skin of same individuals, age 80+, p<0.001): 273%
- mean increase in number of fibroblasts per section ([1]; 1% retinol, one topical application, occluded seven days, vs vehicle-treated skin of same individuals, age 80+, p<0.05): 30%
- epidermal thickness [1, 3]: increased the epidermal thickness substantially; also recorded: thickened
- number of detrimental dermal connective tissue features [1, 3]: little change
- appearance of dermal collagen [1, 4]: denser and more regular
- interfacial surface area between epidermis and dermis (rete pegs and dermal papillae) [1, 4]: increased
- decrease in MMP-1 activity (MMP-1): 48%
- procollagen protein levels (procollagen protein): comparable to those found in sun-protected skin of significantly younger individuals
- ERK activity in vivo compared with vehicle-treated area (ERK): more than doubled
- increase in ex vivo keratinocytes growth (keratinocytes): about 30%
- increase in Type III procollagen mRNA from control (vehicle-treated) areas [2]: about 2.5 times
- change in the activity of MMP-2 (MMP-2): no significant change
